# Measured values taken from PubChem BioAssay (NCI).
#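 GI50 marks 50% less growth. TGI marks complete inhibition of growth.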
# Assays:
# Assay in all cases: inhibition of tumour cell growth, NCI panel, 384-well format
# NCI/ADR-RES ovarian = tested on: NCI/ADR-RES ovarian
# RXF 393 renal = tested on: RXF 393 renal
# HCT-116 colon = tested on: HCT-116 colon
# DU-145 prostate = tested on: DU-145 prostate
# HOP-62 NSCLC = tested on: HOP-62 NSCLC
# SNB-19 CNS = tested on: SNB-19 CNS
# SK-MEL-28 melanoma = tested on: SK-MEL-28 melanoma
# COLO 205 colon = tested on: COLO 205 colon
# HOP-92 NSCLC = tested on: HOP-92 NSCLC
# OVCAR-3 ovarian = tested on: OVCAR-3 ovarian
# MCF7 breast = tested on: MCF7 breast
# HL-60(TB) leukemia = tested on: HL-60(TB) leukemia
# OVCAR-4 ovarian = tested on: OVCAR-4 ovarian
# MDA-MB-468 breast = tested on: MDA-MB-468 breast
# MALME-3M melanoma = tested on: MALME-3M melanoma
# MDA-MB-435 melanoma = tested on: MDA-MB-435 melanoma
# HCC-2998 colon = tested on: HCC-2998 colon
# MDA-MB-231 breast = tested on: MDA-MB-231 breast
# RPMI-8226 leukemia = tested on: RPMI-8226 leukemia
# BT-549 breast = tested on: BT-549 breast
# SR leukemia = tested on: SR leukemia
# 786-0 renal = tested on: 786-0 renal
# LOX IMVI melanoma = tested on: LOX IMVI melanoma
# OVCAR-5 ovarian = tested on: OVCAR-5 ovarian
# UO-31 renal = tested on: UO-31 renal
# IGROV1 ovarian = tested on: IGROV1 ovarian
# KM12 colon = tested on: KM12 colon
# SW-620 colon = tested on: SW-620 colon
# UACC-257 melanoma = tested on: UACC-257 melanoma
# CAKI-1 renal = tested on: CAKI-1 renal
# U251 glioblastoma = tested on: U251 glioblastoma
# ACHN renal = tested on: ACHN renal
# CCRF-CEM leukemia = tested on: CCRF-CEM leukemia
# UACC-62 melanoma = tested on: UACC-62 melanoma
# SK-OV-3 ovarian = tested on: SK-OV-3 ovarian
# K-562 leukemia = tested on: K-562 leukemia
# HT29 colon = tested on: HT29 colon
# OVCAR-8 ovarian = tested on: OVCAR-8 ovarian
# PC-3 prostate = tested on: PC-3 prostate
# A549 NSCLC = tested on: A549 NSCLC
# TK-10 renal = tested on: TK-10 renal
# NCI-H460 NSCLC = tested on: NCI-H460 NSCLC
# SN12C renal = tested on: SN12C renal
# SF-295 CNS = tested on: SF-295 CNS
# SF-268 CNS = tested on: SF-268 CNS
# SK-MEL-2 melanoma = tested on: SK-MEL-2 melanoma
# NCI-H522 lung = tested on: NCI-H522 lung
# MOLT-4 leukemia = tested on: MOLT-4 leukemia
# A498 renal = tested on: A498 renal
# NCI-H226 lung = tested on: NCI-H226 lung
# SK-MEL-5 melanoma = tested on: SK-MEL-5 melanoma
# SF-539 CNS = tested on: SF-539 CNS
# T-47D breast = tested on: T-47D breast
# NCI-H23 lung = tested on: NCI-H23 lung
# NCI-H322M lung = tested on: NCI-H322M lung
# M14 melanoma = tested on: M14 melanoma
# HCT-15 colon = tested on: HCT-15 colon
compound,measurement,setting,value
Cc1c(S(C)(=O)=O)c(-c2cc(F)cc(N3CCN(c4ccc(NS(=O)(=O)c5ccc(N[C@H](CCN6CCC(C(=O)OCCCP(=O)(O)O)CC6)CSc6ccccc6)c(S(=O)(=O)C(F)(F)F)c5)cc4)CC3)c2)c(-c2ccc(Cl)cc2)n1C(C)C,GI50,NCI/ADR-RES ovarian,> 100 µM
same,TGI,NCI/ADR-RES ovarian,> 100 µM
same,GI50,RXF 393 renal,0.12 µM
same,TGI,RXF 393 renal,30.3 µM
same,GI50,HCT-116 colon,> 100 µM
same,TGI,HCT-116 colon,> 100 µM
same,GI50,DU-145 prostate,> 100 µM
same,TGI,DU-145 prostate,> 100 µM
same,GI50,HOP-62 NSCLC,> 100 µM
same,TGI,HOP-62 NSCLC,> 100 µM
same,GI50,SNB-19 CNS,> 100 µM
same,TGI,SNB-19 CNS,> 100 µM
same,GI50,SK-MEL-28 melanoma,> 100 µM
same,TGI,SK-MEL-28 melanoma,> 100 µM
same,GI50,COLO 205 colon,> 100 µM
same,TGI,COLO 205 colon,> 100 µM
same,GI50,HOP-92 NSCLC,0.0429 µM
same,TGI,HOP-92 NSCLC,0.739 µM
same,GI50,OVCAR-3 ovarian,> 100 µM
same,TGI,OVCAR-3 ovarian,> 100 µM
same,GI50,MCF7 breast,> 100 µM
same,TGI,MCF7 breast,> 100 µM
same,GI50,HL-60(TB) leukemia,> 100 µM
same,TGI,HL-60(TB) leukemia,> 100 µM
same,GI50,OVCAR-4 ovarian,> 100 µM
same,TGI,OVCAR-4 ovarian,> 100 µM
same,GI50,MDA-MB-468 breast,73.1 µM
same,TGI,MDA-MB-468 breast,> 100 µM
same,GI50,MALME-3M melanoma,> 100 µM
same,TGI,MALME-3M melanoma,> 100 µM
same,GI50,MDA-MB-435 melanoma,> 100 µM
same,TGI,MDA-MB-435 melanoma,> 100 µM
same,GI50,HCC-2998 colon,0.425 µM
same,TGI,HCC-2998 colon,15.6 µM
same,GI50,MDA-MB-231 breast,0.945 µM
same,TGI,MDA-MB-231 breast,15 µM
same,GI50,RPMI-8226 leukemia,0.0131 µM
same,TGI,RPMI-8226 leukemia,0.0361 µM
same,GI50,BT-549 breast,> 100 µM
same,TGI,BT-549 breast,> 100 µM
same,GI50,SR leukemia,0.892 µM
same,TGI,SR leukemia,> 100 µM
same,GI50,786-0 renal,> 100 µM
same,TGI,786-0 renal,> 100 µM
same,GI50,LOX IMVI melanoma,> 100 µM
same,TGI,LOX IMVI melanoma,> 100 µM
same,GI50,OVCAR-5 ovarian,> 100 µM
same,TGI,OVCAR-5 ovarian,> 100 µM
same,GI50,UO-31 renal,> 100 µM
same,TGI,UO-31 renal,> 100 µM
same,GI50,IGROV1 ovarian,> 100 µM
same,TGI,IGROV1 ovarian,> 100 µM
same,GI50,KM12 colon,> 100 µM
same,TGI,KM12 colon,> 100 µM
same,GI50,SW-620 colon,> 100 µM
same,TGI,SW-620 colon,> 100 µM
same,GI50,UACC-257 melanoma,> 100 µM
same,TGI,UACC-257 melanoma,> 100 µM
same,GI50,CAKI-1 renal,> 100 µM
same,TGI,CAKI-1 renal,> 100 µM
same,GI50,U251 glioblastoma,> 100 µM
same,TGI,U251 glioblastoma,> 100 µM
same,GI50,ACHN renal,> 100 µM
same,TGI,ACHN renal,> 100 µM
same,GI50,CCRF-CEM leukemia,0.0412 µM
same,TGI,CCRF-CEM leukemia,0.178 µM
same,GI50,UACC-62 melanoma,> 100 µM
same,TGI,UACC-62 melanoma,> 100 µM
same,GI50,SK-OV-3 ovarian,> 100 µM
same,TGI,SK-OV-3 ovarian,> 100 µM
same,GI50,K-562 leukemia,> 100 µM
same,TGI,K-562 leukemia,> 100 µM
same,GI50,HT29 colon,> 100 µM
same,TGI,HT29 colon,> 100 µM
same,GI50,OVCAR-8 ovarian,> 100 µM
same,TGI,OVCAR-8 ovarian,> 100 µM
same,GI50,PC-3 prostate,> 100 µM
same,TGI,PC-3 prostate,> 100 µM
same,GI50,A549 NSCLC,> 100 µM
same,TGI,A549 NSCLC,> 100 µM
same,GI50,TK-10 renal,> 100 µM
same,TGI,TK-10 renal,> 100 µM
same,GI50,NCI-H460 NSCLC,> 100 µM
same,TGI,NCI-H460 NSCLC,> 100 µM
same,GI50,SN12C renal,> 100 µM
same,TGI,SN12C renal,> 100 µM
same,GI50,SF-295 CNS,> 100 µM
same,TGI,SF-295 CNS,> 100 µM
same,GI50,SF-268 CNS,> 100 µM
same,TGI,SF-268 CNS,> 100 µM
same,GI50,SK-MEL-2 melanoma,> 100 µM
same,TGI,SK-MEL-2 melanoma,> 100 µM
same,GI50,NCI-H522 lung,> 100 µM
same,TGI,NCI-H522 lung,> 100 µM
same,GI50,MOLT-4 leukemia,0.0152 µM
same,TGI,MOLT-4 leukemia,0.0362 µM
same,GI50,A498 renal,> 100 µM
same,TGI,A498 renal,> 100 µM
same,GI50,NCI-H226 lung,> 100 µM
same,TGI,NCI-H226 lung,> 100 µM
same,GI50,SK-MEL-5 melanoma,> 100 µM
same,TGI,SK-MEL-5 melanoma,> 100 µM
same,GI50,SF-539 CNS,> 100 µM
same,TGI,SF-539 CNS,> 100 µM
same,GI50,T-47D breast,> 100 µM
same,TGI,T-47D breast,> 100 µM
same,GI50,NCI-H23 lung,> 100 µM
same,TGI,NCI-H23 lung,> 100 µM
same,GI50,NCI-H322M lung,> 100 µM
same,TGI,NCI-H322M lung,> 100 µM
same,GI50,M14 melanoma,> 100 µM
same,TGI,M14 melanoma,> 100 µM
same,GI50,HCT-15 colon,> 100 µM
same,TGI,HCT-15 colon,> 100 µM
